{"source": "patent US12054742B2", "about": "“Compositions and methods to derive mesodermal lineage cells and mixed tissue organoids from embryonic stem cells” (THE REGENTS OF THE UNIVERSITY OF MICHIGAN, priority 2018, dated 2024)", "assay_type_in_all_cases": "cell-based, mouse", "key": {"[1]": {"test_system": "hWDR5Dox;mWdr5KO (mWdr5 KO) organoids", "experiment": "Cell proliferation of differentiating mWdr5 KO organoids in retinal culture conditions (EB day 4)", "settings": "Dox added at T0h, organoid day 4", "protocol": "(§1) FIGS. 2A-2H. WDR5 regulates retinal progenitor cell fate transition in a dose- and time-dependent manner. (FIG. 2A) Tight control of exogenous HA-hWDR5 during early time window of ESC differentiation. hWDR5^Dox;mWdr5^KO (i.e., mWdr5 KO) ESCs were maintained in Dox (+) ESC media and Dox was removed upon ESC differentiation (day 0 or EB day 0 (EB0)). At different time points (0 h, 24 h, 36 h, 48 h, 60 h), cells were collected and subjected to probe HA-hWDR5 expression (a-HA). Tubulin: loading control. (FIG. 2B) Dose-dependent induction of exogenous hWDR5 and H3K4me during ESC differentiation. mWdr5 KO ESCs were maintained in Dox (+) ESC media and Dox was removed upon ESC differentiation (day 0). At 12 h post differentiation, different doses of Dox were added to mWdr5 KO EBs. At embryoid body (EB) day 4 (EB4), EBs were collected and extracted histones were subjected to western blotting. Total H3 was used as loading control. […] Cell proliferation was determined at EB day 4 (FIG. 2C) and Rx-GFP positive retinal progenitor cells were scored by flow cytometry at day 5 (FIG. 2D). […] Cell proliferation was recorded at EB day 4 (FIG. 2E) and Rx-GFP positive retinal progenitor cells at EB day 5 were scored by flow cytometry (FIG. 2F). […] (FIG. 2H) Wdr5 regulates RPC differentiation in a time-dependent manner as determined by Rx/Rax mRNA RT-qPCR. […]"}, "[2]": {"test_system": "hWDR5Dox;mWdr5KO (mWdr5 KO) organoids", "experiment": "Rx-GFP (+) retinal lineage cell differentiation scored by flow cytometry (day 5)", "settings": "Dox from T0h", "protocol": "as §1"}, "[3]": {"test_system": "hWDR5Dox;mWdr5KO organoids", "experiment": "RT-qPCR of cardiomyocyte markers cTnT and aMHC after late (T48h) induction of hWDR5", "settings": "Dox added at T48h", "protocol": "FIGS. 4A-4K. Late induction of hWDR5 skews ESC differentiation from retinal neuroectoderm to cardiac mesoderm. (FIGS. 4A, 4B, 4C and 4D) RT-qPCR analysis of pluripotent marker (Oct4, FIG. 4A), neuroepithelial marker (N-Cadherin, FIG. 4B), retinal ectoderm marker (Rax/Rx, FIG. 4C) and cardiomyocyte mesoderm marker (cTnT, FIG. 4D) during time-course differentiation of WT, early induction (T12h), late induction (T36h or T48h) of exogenous hWDR5 in hWDR5^Dox;mWdr5^KO (i.e., mWdr5 KO) EBs. […] (FIG. 4H) Critical time points for exogenous hWDR5 linked to cardiomyocyte differentiation were determined by cTnT RT-qPCR. […] Induction of early mesoderm marker (T/Brachyury) and cTnT was determined by RT-qPCR.\nTrizol reagent (ThermoFisher Scientific) and RNeasy mini kit (Qiagen) were utilized for RNA isolation from ESCs or EBs. […] Data were automatically analyzed using Bio-Rad CFX manager software using Δ/ΔCt method.\nIn various aspects of the disclosure, quantitative reverse transcription PCR (RT-qPCR) is used to analyze results obtained in the examples. […] Data is automatically analyzed using Bio-Rad CFX manager software using Δ/ΔCt method.\nThird, immunohistochemistry (IHC) was used to assay for cardiomyocyte-specific proteins in T48h conditions. […] Neither cTnT nor Myh1e were detected in WT and T12h conditions. […]"}}, "data": [{"smiles": "C[C@H]1c2cccc(O)c2C(=O)C2=C(O)[C@]3(O)C(=O)C(C(N)=O)=C(O)[C@@H](N(C)C)[C@@H]3[C@@H](O)[C@@H]21", "note": "[Dox, doxycycline]", "values": [{"measurement": "Dox concentration at which rescue of the proliferation defect reached a plateau", "setting": "[1]", "value": 250, "unit": "ng/mL"}, {"measurement": "Dox dose at which proportion of Rx-GFP (+) RLCs reached a plateau", "setting": "[2]", "value": 500, "unit": "ng/mL"}, {"measurement": "Dox dose at which proportion of Rx-GFP (+) RLCs was comparable to WT controls", "setting": "[2]", "value": 250, "unit": "ng/mL"}, {"measurement": "Dox concentrations that induced cTnT and aMHC expression", "setting": "[3]", "value": "up to 125 ng/ml"}]}]}
